Assay results as given in patent US20140242093A1, “METHODS AND COMPOSITIONS FOR MODULATING THE INNATE IMMUNE RESPONSE AND/OR MYOGENESIS IN A MAMMALIAN SUBJECT” (FRED HUTCHINSON CANCER RESEARCH CENTER, priority 2011, published 2014).

System: control human primary myoblasts
Assay: Expression microarray of primary myoblasts transduced with lentivirus carrying DUX4-fl, DUX4-s or GFP
Method: Primary human myoblasts were collected and cultured as previously described (Snider et al., 2010). Primary myoblasts were maintained at or below 70% confluency for proliferation. For differentiation, cells were allowed to reach 95-100% confluency in growth medium. Once confluency was reached, the cells were changed to differentiation medium (F10 media supplemented with 1% horse serum, 10 μg/mL insulin, and 10 μg/mL transferrin, penicillin/streptomycin) and maintained for 4 days. Human RD cells were grown in DMEM in 10% bovine calf serum (Hyclone) and penicillin/streptomycin. The primary myoblasts were transduced with lentivirus carrying DUX-fl, DUX4- or GFP (MOI=15).
Expression microarrays were performed on the transduced cells at 24 hours after transduction as follows. […] Samples were analyzed by Illumina Human Whole Genome microarrays. Probe intensities were corrected, normalized, and summarized by the Lumi package of Bioconductor (Du et al., 2008). Differentially expressed genes were identified by the LIMMA package of Bioconductor (Wettenhall and Smyth, 2004). Gene set enrichment analysis (GSEA) was performed using the Bioconductor GOstats package (Falcon and Gentleman, 2007).

DUX4-fl: full-length DUX4 protein (SEQ ID NO:110), expressed from lentiviral or pCS2 vectors or in vitro translated
CHI3L2 expression fc (Refseq NM_004000.2, cultured human skeletal muscle): −2.705
IRF7 expression fc (Refseq NM_004029.2, cultured human skeletal muscle): −1.959
CRY1 expression fc (Refseq NM_004075.2): 2.342
PSPN expression fc (Refseq NM_004158.2): 2.203
BEST1 fc (Refseq NM_004183.2): −1.101
UBE2L6 expression fc (Refseq NM_004223.3, cultured human skeletal muscle): −3.085
fc of STK17B (expression array) (Refseq NM_004226.2): −0.05995
fc of SLC9A3R1 (expression array) (Refseq NM_004252.2): −1.036
BST2 expression fc (Refseq NM_004335.2, cultured human skeletal muscle): −4.248
CREB1 fc (Refseq NM_004379.2): −1.133
fc of HOXB7 (expression array) (Refseq NM_004502.3): −1.037
SP110 expression fc (Refseq NM_004510.2, cultured human skeletal muscle): −2.941
PSPH fc (Refseq NM_004577.3): −1.164
XPC expression fc (Refseq NM_004628.3, cultured human skeletal muscle): −2.458
PABPN1 expression fc (Refseq NM_004643.1): 2.567
MAP3K6 fc (Refseq NM_004672.3): −1.074
fc of SLC16A5 (expression array) (Refseq NM_004695.2): −1.025
fc of SFRS2IP (expression array) (Refseq NM_004719.2): −0.0565
fc of ARHGEF2 (expression array) (Refseq NM_004723.2): −1.057
TIAF1 fc (Refseq NM_004740.3): −1.123
NOLC1 expression fc (Refseq NM_004741.1): 2.439
SLIT2 expression fc (Refseq NM_004787.1): 2.369
LPXN fc (Refseq NM_004811.1): −1.124
PEX16 fc (Refseq NM_004813.1): −1.101
C9orf61 expression fc (Refseq NM_004816.2): 2.614
MED26 expression fc (Refseq NM_004831.3): 2.1
fc of GSTO1 (expression array) (Refseq NM_004832.1): −1.03
fc of LITAF (expression array) (Refseq NM_004862.2): −0.5892
fc of SCAMPI (expression array) (Refseq NM_004866.4): −0.4749
fc of APBA3 (expression array) (Refseq NM_004886.3): −1.032
SERPINI1 expression fc (Refseq NM_005025.3): 1.809
TRIM25 expression fc (Refseq NM_005082.4, cultured human skeletal muscle): −2.513
SFRS17A expression fc (Refseq NM_005088.2): 2.456
ISG15 expression fc (Refseq NM_005101.1, cultured human skeletal muscle): −4.311
MVP fc (Refseq NM_005115.3): −1.178
MED13 expression fc (Refseq NM_005121.2): 1.817
fc of REC8 (expression array) (Refseq NM_005132.2): −1.007
ATP6V0A1 fc (Refseq NM_005177.3): −1.152
CEBPB expression fc (Refseq NM_005194.2, cultured human skeletal muscle): −2.441
ETS1 fc (Refseq NM_005238.2): −1.067
FAT1 fc (Refseq NM_005245.3): −1.138
GPR37 expression fc (Refseq NM_005302.2): 2.121
H1F0 expression fc (Refseq NM_005318.2, cultured human skeletal muscle): −2.434
HSPA1A expression fc (Refseq NM_005345.4): 3.54
HSPA1B expression fc (Refseq NM_005346.3): 3.402
NEFM expression fc (Refseq NM_005382.1): 2.925
SHMT2 fc (Refseq NM_005412.4): −1.089
STAT2 expression fc (Refseq NM_005419.2, cultured human skeletal muscle): −2.69
EOMES expression fc (Refseq NM_005442.2): 2.897
TOM1 fc (Refseq NM_005488.1): −1.129
HLA-B expression fc (Refseq NM_005514.5, cultured human skeletal muscle): −2.752
HLA-E fc (Refseq NM_005516.4): −1.11
IFI16 expression fc (Refseq NM_005531.1, cultured human skeletal muscle): −2.008
IFI27 expression fc (Refseq NM_005532.3, cultured human skeletal muscle): −6.527
IFI35 expression fc (Refseq NM_005533.2, cultured human skeletal muscle): −3.847
IRS1 fc (Refseq NM_005544.1): −1.157
KLC1 expression fc (Refseq NM_005552.4): 1.967
RGS4 expression fc (Refseq NM_005613.3): 1.951
SGK expression fc (Refseq NM_005627.2): 2.04
TAF4B expression fc (Refseq NM_005640.1): 1.87
fc of TERF2 (expression array) (Refseq NM_005652.2): −1.02
fc of REEP5 (expression array) (Refseq NM_005669.4): −0.3556
fc of HIPK3 (expression array) (Refseq NM_005734.3): −0.2982
ARIH1 expression fc (Refseq NM_005744.2): 2.243
fc of NAMPT (expression array) (Refseq NM_005746.2): −0.5767
LHFPL2 fc (Refseq NM_005779.1): −1.13
STX6 expression fc (Refseq NM_005819.4): 2.053
fc of RCAN2 (expression array) (Refseq NM_005822.2): −0.5968
MFGE8 fc (Refseq NM_005928.1): −1.15
MT1X expression fc (Refseq NM_005952.2, cultured human skeletal muscle): −2.444
SNAI1 expression fc (Refseq NM_005985.2): 1.943
RBM12 expression fc (Refseq NM_006047.4): 2.013
TRIM22 expression fc (Refseq NM_006074.3, cultured human skeletal muscle): −2.581
CBARA1 expression fc (Refseq NM_006077.2): 2.064
TUBB2C expression fc (Refseq NM_006088.5): 1.948
LASP1 fc (Refseq NM_006148.1): −1.152
NFE2L2 fc (Refseq NM_006164.2): −1.093
OAS3 expression fc (Refseq NM_006187.2, cultured human skeletal muscle): −4.029
fc of PDGFRL (expression array) (Refseq NM_006207.1): −0.6227
PSME1 fc (Refseq NM_006263.2): −1.138
STK3 expression fc (Refseq NM_006281.2): 2.186
THY1 fc (Refseq NM_006288.2): −1.067
TNFAIP3 expression fc (Refseq NM_006290.2, cultured human skeletal muscle): −2.897
HSPB3 expression fc (Refseq NM_006308.1): 1.914
NXF1 expression fc (Refseq NM_006362.4): 4.233
fc of ATG7 (expression array) (Refseq NM_006395.1): −1.016
SLC34A2 expression fc (Refseq NM_006424.2): 5.514
TXNRD2 fc (Refseq NM_006440.3): −1.104
fc of MXD4 (expression array) (Refseq NM_006454.2): −1.035
ARID3B expression fc (Refseq NM_006465.2): 2.024
TXNIP expression fc (Refseq NM_006472.2, cultured human skeletal muscle): −1.9
ZNF217 expression fc (Refseq NM_006526.2): 4.114
FAM189B fc (Refseq NM_006589.2): −1.075
fc of TCFL5 (expression array) (Refseq NM_006602.2): −1.053
RFPL2 expression fc (Refseq NM_006605.1): 7.293
fc of NES (expression array) (Refseq NM_006617.1): −0.08904
HSPH1 expression fc (Refseq NM_006644.2): 2.217
HCP5 fc (Refseq NM_006674.2): −1.099
UGP2 fc (Refseq NM_006759.3): −1.169
IFI44L expression fc (Refseq NM_006820.1, cultured human skeletal muscle): −5.117
fc of CKAP4 (expression array) (Refseq NM_006825.2): −1.006
fc of ILVBL (expression array) (Refseq NM_006844.3): −1.015
KDELR3 fc (Refseq NM_006855.2): −1.163
fc of GMPR (expression array) (Refseq NM_006877.2): −0.4519
SLC2A3 expression fc (Refseq NM_006931.1): 3.385
fc of HSPA13 (expression array) (Refseq NM_006948.4): −0.1756
ZBTB25 fc (Refseq NM_006977.2): −1.113
ADAMTS1 fc (Refseq NM_006988.3): −1.164
C1Oorf10 expression fc (Refseq NM_007021.2, cultured human skeletal muscle): −2.641
fc of DNAJB4 (expression array) (Refseq NM_007034.3): −1.024
KATNA1 expression fc (Refseq NM_007044.2): 1.819
UBL3 expression fc (Refseq NM_007106.2): 2.164
TESK2 expression fc (Refseq NM_007170.2): 1.787
NUP50 expression fc (Refseq NM_007172.3): 2.324
fc of PACSIN2 (expression array) (Refseq NM_007229.1): −1.038
DUSP12 expression fc (Refseq NM_007240.1): 2.249
fc of MGLL (expression array) (Refseq NM_007283.5): −1.033
STAT1 expression fc (Refseq NM_007315.2, cultured human skeletal muscle): −2.915
fc of LGALS9 (expression array) (Refseq NM_009587.2): −0.8549
FRAT2 expression fc (Refseq NM_012083.2): 1.918
fc of CDC42EP4 (expression array) (Refseq NM_012121.4): −1.034
CHORDC1 expression fc (Refseq NM_012124.1): 1.805
CLDN14 expression fc (Refseq NM_012130.2): 3.148
TFIP11 expression fc (Refseq NM_012143.2): 3.191
SIRT1 expression fc (Refseq NM_012238.3): 1.844
KCNH4 expression fc (Refseq NM_012285.1): 2.749
BAMBI expression fc (Refseq NM_012342.2): 2.783
fc of TINF2 (expression array) (Refseq NM_012461.1): −1.025
CD24 expression fc (Refseq NM_013230.2): 2.624
ZNF214 expression fc (Refseq NM_013249.1): 2.219
TBK1 fc (Refseq NM_013254.2): −1.08
MYLIP expression fc (Refseq NM_013262.3): 1.824
TRA2A expression fc (Refseq NM_013293.3): 1.978
fc of EEF2K (expression array) (Refseq NM_013302.3): −1.058
SERTAD1 expression fc (Refseq NM_013376.3): 2.002
fc of SLC25A24 (expression array) (Refseq NM_013386.3): −0.2843
fc of CLIC4 (expression array) (Refseq NM_013943.1): −0.9976
BZW2 expression fc (Refseq NM_014038.1): 2.677
LRP10 fc (Refseq NM_014045.3): −1.102
fc of FAM156A (expression array) (Refseq NM_014138.3): −1.027
SMARCAL1 fc (Refseq NM_014140.2): −1.157
CCDC59 expression fc (Refseq NM_014167.2): 1.892
fc of TDRD7 (expression array) (Refseq NM_014290.1): −1.062
DDX58 expression fc (Refseq NM_014314.3, cultured human skeletal muscle): −2.466
PDSS1 expression fc (Refseq NM_014317.3): 2.003
AMACR expression fc (Refseq NM_014324.4): 2.743
PPP1R15A expression fc (Refseq NM_014330.2): 2.08
TSPAN13 expression fc (Refseq NM_014399.3): 2.117
APOBEC3C fc (Refseq NM_014508.2): −1.108
EVC expression fc (Refseq NM_014556.2, cultured human skeletal muscle): −1.954
SCHIP1 expression fc (Refseq NM_014575.2, cultured human skeletal muscle): −2.093
SLC40A1 expression fc (Refseq NM_014585.3): 1.859
CDR2L fc (Refseq NM_014603.1): −1.119
TAX1BP3 fc (Refseq NM_014604.2): −1.072
CTR9 expression fc (Refseq NM_014633.3): 2.402
SLC25A44 expression fc (Refseq NM_014655.1): 2.017
MTSS1 fc (Refseq NM_014751.4): −1.159
LBA1 fc (Refseq NM_014831.1): −1.121
KIAA0020 expression fc (Refseq NM_014878.4): 2.017
ABLIM3 fc (Refseq NM_014945.2): −1.174
WDR47 expression fc (Refseq NM_014969.4): 2.277
ARC expression fc (Refseq NM_015193.3): 1.802
